Data on two compounds can be found in patent publication US20060148828A1, “Combination comprising a CDK inhibitor and a topoisomerase 1 inhibitor for the treatment of cancer and other proliferative diseases” (Cyclacel Limited, priority 2003, published 2006).

Values joined by “and” are separate entries in the source; they are usually repeats but may differ in a detail not shown here. Equal entries are not always repeated.

Data set [1] relates to wt-p53 HT29-A4 cells. Particulars: 1 μM CPT-11 for 72 h, synchronized cells.
Procedure: (§1) Cells were maintained in DMEM medium supplemented with 10% fetal calf serum, and under continuous selection with geneticin for the wt-p53 HT29-A4 cell line.
(§2) Cells were synchronized in G0/G1 by serum starvation for 48 h. Addition of serum and fresh medium released cells from the block and promoted them to cycle. Cell cycle progression was analyzed by BrdU (5-bromo-2′-deoxiuridine; Sigma) incorporation as described (13).
Data set [2] relates to wt-p53 HT29-A4 xenografts. The data set is described as follows: Antitumor effects on xenografts in nude mice. The data set is classed as in vivo, Swiss nu/nu mice. Particulars: for TGI, tumor growth inhibition: at sacrifice of first control mouse.
In data set [3] the test system is wt-p53 HT29-A4 cells. The data set is described as follows: Western blot of apoptosis markers (PARP p85, cleaved caspase-3). The data set is classed as cell-based, human. Particulars: 1 μM CPT-11 for 72 h. A general note: A western blot detects proteins with antibodies after separation by electrophoresis.
In data set [4] the test system is HT29 colon tumor xenografts. Description: In vivo drug efficacy on xenografts in nude mice. Also on record: species or system Swiss nu/nu mice. Particulars: for CR nb (complete regression) / Cures nb (tumour-free mice at end) / PR nb (partial response): 9 mice; for TGI % (day): day 21; for Calc growth delay (TGD treated − TGD control): doses as in Treatment column; for Fraction T/C (treated RTV/control RTV × 100): mouse, in vivo.

Data set [5] relates to wt-p53 HT29-A4 cells. Description: Cell cycle progression (BrdU incorporation). Particulars: 1 μM CPT-11, up to 36 h, G0/G1 synchronized cells. Background: Dividing cells build labelled thymidine or BrdU into new DNA.
Procedure: as §1, §2
The conditions of data set [6]: alone or in combination with chemotherapy, three to six 4-day cycles.
A short description of a further data set: in vivo. Particulars: Swiss nu/nu, mouse, po.
[7] abbreviates: CPT-11 40 mg/kg/day i.p., 8 mice per group.

For the compound `CCc1c2c(nc3ccc(OC(=O)N4CCC(N5CCCCC5)CC4)cc13)-c1cc3c(c(=O)n1C2)COC(=O)[C@]3(O)CC` [CPT-11, irinotecan], the “cell proliferation versus untreated cells and mut-p53 cells” value in the data set on wt-p53 HT29-A4 cells [1] was “significantly decreased cell proliferation”. Further, in data set [2] (CPT-11 10 mg/kg/day i.p.), the “Growth delay (treated/control TGT difference)” value is listed as 10 days and the “TGI, tumor growth inhibition” value turned out to be 60%. Besides, the “No. PR (partial response)” value in data set [2] (CPT-11 10 mg/kg/day i.p., 10 mice per group) stood at 8. Besides, in data set [2] (CPT-11 40 mg/kg/day i.p.), the “Growth delay (treated/control TGT difference)” value turned out to be 22 days. Moreover, in data set [2] (setting [7]), the “No. PR (partial response)” value stood at 7 and the “No. cures (tumor-free mice at end of experiment)” value came out at 1. Besides, the “TGI, tumor growth inhibition” value in data set [2] (CPT-11 40 mg/kg/day i.p., 40 mg/kg/day) was 87% and 86%. For the same compound, in data set [2] (CPT-11 at both doses (10 and 40 mg/kg/day)), the “survival score of mice (tumors reaching 2000 mm3 as a function of time)” value is given as “significantly increased the survival score”. The “apoptosis (PARP p85 fragment, caspase-3 activation)” value in the data set on wt-p53 HT29-A4 cells [3] is “increased apoptosis”. Besides, in data set [4], the “CR nb (complete regression)” value is 0, the “Cures nb (tumour-free mice at end)” value amounted to 0, the “PR nb (partial response)” value amounted to 0 and the “TGI % (day)” value stood at 61.6%. Besides, in data set [4], the Calc growth delay (TGD treated − TGD control) is 12.6 days and the “Fraction T/C (treated RTV/control RTV × 100)” value stood at 38.4. In addition, in data set [4] (CPT-11 10 and 40 mg/kg/day i.p., data not shown), the “response of mut-p53 xenografts to CPT-11” value is reported as “no response”. For the same compound, the cell cycle blockage result in the data set with wt-p53 HT29-A4 cells [5] was “blocked in early S phase”.

For `CC[C@H](CO)Nc1nc(NCc2ccccc2)c2ncn(C(C)C)c2n1` [roscovitine, 6-benzylamino-2-[(R)-1-ethyl-2-hydroxyethylamino]-9-isopropylpurine], the tolerance entry in data set [6] is “well tolerated”. The same compound yielded an MTD in the data set “in vivo” of 400 mg/kg/day. The “antitumour activity as single agent” value in data set [4] (400 mg/kg/day for up to six weeks) is on record as “did not show antitumour activity”. Also, in data set [4], the “CR nb (complete regression)” value was 0, the “Cures nb (tumour-free mice at end)” value worked out at 0, the “PR nb (partial response)” value was 0 and the “TGI % (day)” value was 30.4%. Further, in data set [4], the Calc growth delay (TGD treated − TGD control) was 3 days and the “Fraction T/C (treated RTV/control RTV × 100)” value worked out at 69.6.
